Reference: patent publication US20200216441A1, “PESTICIDALLY ACTIVE HETEROCYCLIC DERIVATIVES WITH SULFUR CONTAINING SUBSTITUENTS” (SYNGENTA PARTICIPATIONS AG, priority 2017, published 2020)

What was measured:
[1] = tested on: Bemisia tabaci (Cotton White Fly); settings: in Gossypium hirsutum, foliar, 144 h
[2] = tested on: Plutella xylostella (Diamond Back Moth); test: whole plant or invertebrate; format: in vivo; settings: 120 h, application rate of 200 ppm, L2 larvae on treated artificial diet, 5 days after infestation, read-out: effect in at least one of the two categories (mortality or growth inhibition)
[3] = tested on: Diabrotica Balteata (Corn Root Worm); test: Diabrotica balteata (Corn Root Worm); settings: in Zea mays, 96 h, read-out: effect in at least one of the two categories (mortality or growth inhibition)
[4] = tested on: Euschistus heros (Neotropical Brown Stink Bug); test: whole plant or invertebrate; format: in vivo; settings: 120 h, application rate of 200 ppm, N2 nymphs on sprayed soybean leaves, 5 days after infestation, read-out: effect in at least one of the two categories (mortality or growth inhibition)
[5] = tested on: Myzus persicae (Green Peach Aphid); test: whole plant or invertebrate; settings: foliar, 144 h
[6] = tested on: Myzus persicae (Green Peach Aphid); test: whole plant or invertebrate; format: in vivo; settings: 144 h, test rate of 24 ppm, systemic, roots of infested pea seedlings in test solution, 6 days
[7] = tested on: Spodoptera littoralis (Egyptian Cotton Leaf Worm); test: whole plant or invertebrate; settings: in Gossypium barbadense, foliar, 72 h, read-out: control (mortality, anti-feeding effect, growth inhibition)

CCSc1cc(OC(C)(C)C)cnc1-c1nc2cc(C(F)(F)F)ncc2n1C [Compound P3, 2-(5-tert-butoxy-3-ethylsulfanyl-2-pyridyl)-3-methyl-6-(trifluoromethyl)imidazo[4,5-c]pyridine]
≥ 80%: mortality at 200 ppm [1] | percent effect (mortality or growth inhibition) at 200 ppm [2] | mortality at 200 ppm [3] | percent effect (mortality or growth inhibition) at 200 ppm [4] | mortality at 200 ppm [5]

CCS(=O)(=O)c1cc(OCS(C)(=O)=O)cnc1-c1nc2cc(C(F)(F)F)ncc2n1C [Compound P9, 2-[3-ethylsulfonyl-5-(methylsulfonylmethoxy)-2-pyridyl]-3-methyl-6-(trifluoromethyl)imidazo[4,5-c]pyridine]
≥ 80%: mortality at 200 ppm [1] | mortality at 200 ppm [3] | percent effect (mortality or growth inhibition) at 200 ppm [4] | mortality at 200 ppm [5] | mortality at 24 ppm [6]

CCOc1cnc(-c2nc3cc(C(F)(F)F)ncc3n2C)c(S(=O)(=O)CC)c1 [Compound P12, 2-(5-ethoxy-3-ethylsulfonyl-2-pyridyl)-3-methyl-6-(trifluoromethyl)imidazo[4,5-c]pyridine]
≥ 80%: percent effect (mortality or growth inhibition) at 200 ppm [2] | mortality at 200 ppm [3] | mortality at 200 ppm [7] | mortality at 200 ppm [5] | mortality at 24 ppm [6]

CCS(=O)(=O)c1cc(OC)cnc1-c1nc2cc(C(F)(F)F)ncc2n1C [Compound P13, 2-(3-ethylsulfonyl-5-methoxy-2-pyridyl)-3-methyl-6-(trifluoromethyl)imidazo[4,5-c]pyridine]
≥ 80%: percent effect (mortality or growth inhibition) at 200 ppm [2] | mortality at 200 ppm [3] | mortality at 200 ppm [7] | mortality at 200 ppm [5] | mortality at 24 ppm [6]

CCS(=O)(=O)c1cc(OC(C)C#N)cnc1-c1nc2cc(C(F)(F)F)ncc2n1C (centres unmarked) [Compound P22, 2-[[5-ethylsulfonyl-6-[3-methyl-6-(trifluoromethyl)imidazo[4,5-c]pyridin-2-yl]-3-pyridyl]oxy]propanenitrile]
≥ 80%: percent effect (mortality or growth inhibition) at 200 ppm [2] | mortality at 200 ppm [3] | percent effect (mortality or growth inhibition) at 200 ppm [4] | mortality at 200 ppm [7] | mortality at 200 ppm [5] | mortality at 24 ppm [6]

CCSc1cc(OC(C)C)cnc1-c1nc2cc(C(F)(F)F)ncc2n1C [Compound P27, 2-(3-ethylsulfanyl-5-isopropoxy-2-pyridyl)-3-methyl-6-(trifluoromethyl)imidazo[4,5-c]pyridine]
≥ 80%: percent effect (mortality or growth inhibition) at 200 ppm [2] | mortality at 200 ppm [3] | mortality at 200 ppm [7] | mortality at 200 ppm [5]

CCS(=O)(=O)c1cc(OCCF)cnc1-c1nc2cc(C(F)(F)F)ncc2n1C [Compound P31, 2-[3-ethylsulfonyl-5-(2-fluoroethoxy)-2-pyridyl]-3-methyl-6-(trifluoromethyl)imidazo[4,5-c]pyridine]
≥ 80%: percent effect (mortality or growth inhibition) at 200 ppm [2] | mortality at 200 ppm [3] | percent effect (mortality or growth inhibition) at 200 ppm [4] | mortality at 200 ppm [7] | mortality at 200 ppm [5] | mortality at 24 ppm [6]

CCC(C#N)(CC)Oc1cnc(-c2nc3cc(C(F)(F)F)ncc3n2C)c(S(=O)(=O)CC)c1 [Compound P44, 2-ethyl-2-[[5-ethylsulfonyl-6-[3-methyl-6-(trifluoromethyl)imidazo[4,5-c]pyridin-2-yl]-3-pyridyl]oxy]butanenitrile]
≥ 80%: mortality at 200 ppm [1] | percent effect (mortality or growth inhibition) at 200 ppm [4]

CCS(=O)(=O)c1cc(O[C@H]2C[C@H](OC)C2)cnc1-c1nc2cc(C(F)(F)F)ncc2n1C [Compound P45, 2-[3-ethylsulfonyl-5-(3-methoxycyclobutoxy)-2-pyridyl]-3-methyl-6-(trifluoromethyl)imidazo[4,5-c]pyridine]
≥ 80%: percent effect (mortality or growth inhibition) at 200 ppm [2] | percent effect (mortality or growth inhibition) at 200 ppm [4] | mortality at 200 ppm [7] | mortality at 200 ppm [5] | mortality at 24 ppm [6]

CCS(=O)(=O)c1cc(OCCCS(C)(=O)=O)cnc1-c1nc2cc(C(F)(F)F)ncc2n1C [Compound P52, 2-[3-ethylsulfonyl-5-(3-methylsulfonylpropoxy)-2-pyridyl]-3-methyl-6-(trifluoromethyl)imidazo[4,5-c]pyridine]
≥ 80%: mortality at 200 ppm [1] | percent effect (mortality or growth inhibition) at 200 ppm [4] | mortality at 200 ppm [5] | mortality at 24 ppm [6]

CCS(=O)(=O)c1cc(OCCCSC)cnc1-c1nc2cc(C(F)(F)F)ncc2n1C [Compound P56, 2-[3-ethylsulfonyl-5-(3-methylsulfanylpropoxy)-2-pyridyl]-3-methyl-6-(trifluoromethyl)imidazo[4,5-c]pyridine]
≥ 80%: mortality at 200 ppm [1] | mortality at 200 ppm [3] | percent effect (mortality or growth inhibition) at 200 ppm [4] | mortality at 200 ppm [5] | mortality at 24 ppm [6]

CCS(=O)(=O)c1cc(OCOC)cnc1-c1nc2cc(C(F)(F)F)ncc2n1C [Compound P68, 2-[3-ethylsulfonyl-5-(methoxymethoxy)-2-pyridyl]-3-methyl-6-(trifluoromethyl)imidazo[4,5-c]pyridine]
≥ 80%: percent effect (mortality or growth inhibition) at 200 ppm [2] | mortality at 200 ppm [3] | percent effect (mortality or growth inhibition) at 200 ppm [4] | mortality at 200 ppm [7] | mortality at 200 ppm [5] | mortality at 24 ppm [6]

CCSc1cc(OC(C)C)cnc1-c1nc2cc(S(=O)(=O)C(F)(F)F)ncc2n1C [Compound P73, 2-(3-ethylsulfanyl-5-isopropoxy-2-pyridyl)-3-methyl-6-(trifluoromethylsulfonyl)imidazo[4,5-c]pyridine]
≥ 80%: percent effect (mortality or growth inhibition) at 200 ppm [2] | mortality at 200 ppm [3] | percent effect (mortality or growth inhibition) at 200 ppm [4] | mortality at 200 ppm [7] | mortality at 200 ppm [5]

CCSc1cc(OC(C)C)cnc1-c1nc2cc(SC(F)(F)F)ncc2n1C [Compound P74, 2-(3-ethylsulfanyl-5-isopropoxy-2-pyridyl)-3-methyl-6-(trifluoromethylsulfanyl)imidazo[4,5-c]pyridine]
≥ 80%: percent effect (mortality or growth inhibition) at 200 ppm [2] | mortality at 200 ppm [3] | percent effect (mortality or growth inhibition) at 200 ppm [4] | mortality at 200 ppm [7] | mortality at 200 ppm [5]

CCSc1cc(OCC(F)F)cnc1-c1nc2cc(C(F)(F)F)ncc2n1C [Compound P81, 2-[5-(2,2-difluoroethoxy)-3-ethylsulfanyl-2-pyridyl]-3-methyl-6-(trifluoromethyl)imidazo[4,5-c]pyridine]
≥ 80%: percent effect (mortality or growth inhibition) at 200 ppm [2] | mortality at 200 ppm [3] | percent effect (mortality or growth inhibition) at 200 ppm [4] | mortality at 200 ppm [7] | mortality at 24 ppm [6]

CCS(=O)(=O)c1cc(OC(C)C)cnc1-c1nc2cc(SC(F)F)ncc2n1C [Compound P86, 6-(difluoromethylsulfanyl)-2-(3-ethylsulfonyl-5-isopropoxy-2-pyridyl)-3-methyl-imidazo[4,5-c]pyridine]
≥ 80%: percent effect (mortality or growth inhibition) at 200 ppm [2] | mortality at 200 ppm [3] | percent effect (mortality or growth inhibition) at 200 ppm [4] | mortality at 200 ppm [7] | mortality at 200 ppm [5] | mortality at 24 ppm [6]

CCS(=O)(=O)c1cc(OC(F)(F)F)cnc1-c1nc2cc(C(F)(F)F)ncc2n1C [Compound P98, 2-[3-ethylsulfonyl-5-(trifluoromethoxy)-2-pyridyl]-3-methyl-6-(trifluoromethyl)imidazo[4,5-c]pyridine]
≥ 80%: percent effect (mortality or growth inhibition) at 200 ppm [2] | mortality at 200 ppm [3] | percent effect (mortality or growth inhibition) at 200 ppm [4] | mortality at 200 ppm [7]

CCS(=O)(=O)c1cc(OCS(C)(=O)=O)ccc1-c1nc2cc(C(F)(F)F)ncc2n1C [Compound P105, 2-[2-ethylsulfonyl-4-(methylsulfonylmethoxy)phenyl]-3-methyl-6-(trifluoromethyl)imidazo[4,5-c]pyridine]
≥ 80%: mortality at 200 ppm [1] | mortality at 200 ppm [3] | percent effect (mortality or growth inhibition) at 200 ppm [4] | mortality at 200 ppm [5] | mortality at 24 ppm [6]

CCS(=O)(=O)c1cc(OCSC)ccc1-c1nc2cc(C(F)(F)F)ncc2n1C [Compound P106, 2-[2-ethylsulfonyl-4-(methylsulfanylmethoxy)phenyl]-3-methyl-6-(trifluoromethyl)imidazo[4,5-c]pyridine]
≥ 80%: mortality at 200 ppm [1] | mortality at 200 ppm [3] | percent effect (mortality or growth inhibition) at 200 ppm [4] | mortality at 200 ppm [5] | mortality at 24 ppm [6]

CCS(=O)(=O)c1cc(OCC(F)F)ccc1-c1nc2cc(C(F)(F)F)ncc2n1C [Compound P107, 2-[4-(2,2-difluoroethoxy)-2-ethylsulfonyl-phenyl]-3-methyl-6-(trifluoromethyl)imidazo[4,5-c]pyridine]
≥ 80%: percent effect (mortality or growth inhibition) at 200 ppm [2] | mortality at 200 ppm [3] | percent effect (mortality or growth inhibition) at 200 ppm [4] | mortality at 200 ppm [7] | mortality at 200 ppm [5] | mortality at 24 ppm [6]

CCS(=O)(=O)c1cc(OC(C)C)ccc1-c1nc2cc(C(F)(F)F)ncc2n1C [Compound P108, 2-(2-ethylsulfonyl-4-isopropoxy-phenyl)-3-methyl-6-(trifluoromethyl)imidazo[4,5-c]pyridine]
≥ 80%: percent effect (mortality or growth inhibition) at 200 ppm [2] | mortality at 200 ppm [3] | percent effect (mortality or growth inhibition) at 200 ppm [4] | mortality at 200 ppm [7] | mortality at 200 ppm [5]
